Assay results from ChEMBL document CHEMBL1201862, “PubChem BioAssay data set” (2004).
“And” between values parts separate entries of the source, which are not always exact repeats. Equal values may be shown once.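 In this assay, cells in 96-well plates receive the compound at five concentrations for 48 hours. Endpoints are linearly interpolated between the surrounding concentrations. GI50 = concentration required for 50% inhibition of growth.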 The source made the active and inactive calls. No stated cut-off is given here; in the data, active = GI50 up to about 1.1 µM and inactive = higher.

Tests used:
Experiment in all cases: NCI tumour cell line growth inhibition, 48 h
[1] = test system: OVCAR-4
[2] = test system: NCI-H522
[3] = test system: KM12
[4] = test system: OVCAR-8
[5] = test system: SF-295
[6] = test system: A549
[7] = test system: SW-620
[8] = test system: EKVX
[9] = test system: HCT-15
[10] = test system: SR
[11] = test system: K562
[12] = test system: COLO 205
[13] = test system: UACC-257
[14] = test system: IGROV-1
[15] = test system: SN12C
[16] = test system: NCI/ADR-RES
[17] = test system: SF-268
[18] = test system: HOP-62
[19] = test system: MDA-MB-435
[20] = test system: Hs-578T

| Structure (SMILES) | GI50 [1] | GI50 [2] | GI50 [3] | GI50 [4] | GI50 [5] | GI50 [6] | GI50 [7] | GI50 [8] | GI50 [9] | GI50 [10] | GI50 [11] | GI50 [12] | GI50 [13] | GI50 [14] | GI50 [15] | GI50 [16] | GI50 [17] | GI50 [18] | GI50 [19] | GI50 [20] |
| --- | --- | --- | --- | --- | --- | --- | --- | --- | --- | --- | --- | --- | --- | --- | --- | --- | --- | --- | --- | --- |
| O=C(/C=C/c1cccs1)c1cccc(C(=O)/C=C/c2cccs2)n1 | > 100 µM (inactive) | 22.1 µM (inactive) | 6.43 µM (inactive) | 3.68 µM (inactive) | 76 µM (inactive) | > 84.3 µM (inactive) | 4.05 µM (inactive) | > 100 µM (inactive) | 24 µM | 2.26 µM (inactive) | 3.93 µM (inactive) | > 100 µM (inactive) | > 100 µM (inactive) | 27.7 µM (inactive) | 19.9 µM (inactive) | > 60 µM (inactive) | 21.5 µM (inactive) | 25.4 µM (inactive) | 52.7 µM (inactive) | 23.8 µM (inactive) |
| Cc1n[nH]c(C(F)(F)F)c1/N=N/N1CCOCC1 | 5.86 µM (inactive) | 3.94 µM (inactive) | 6.37 µM (inactive) | 3.76 µM (inactive) | 12.6 µM (inactive) | 8.89 µM (inactive) | 2.32 µM (inactive) | 5.74 µM (inactive) | 8.81 µM | 1.24 µM (inactive) | 1.08 µM (active) | 4.69 µM (inactive) | 9.77 µM (inactive) | 10.7 µM (inactive) | 11 µM (inactive) | 6.76 µM (inactive) | 13.1 µM (inactive) | 8.77 µM (inactive) | 12.2 µM (inactive) | 13 µM (inactive) |
| CCN(CC)CCNc1ccc2nnn3c4ccc(O)cc4c(=O)c1c23 | 2.64 µM (inactive) | 6.82 µM (inactive) | 1.01 µM (active) | 1.49 µM (inactive) | 2.35 µM (inactive) | 0.161 µM (active) | 0.583 µM (active) | 6.98 µM (inactive) | 1.83 µM | 0.06 µM (active) | 1.62 µM (inactive) | 1.84 µM (inactive) | 12.2 µM (inactive) | 4.01 µM (inactive) | 1.64 µM (inactive) | 1.47 µM (inactive) | 6.49 µM (inactive) | 1.76 µM (inactive) | 3.56 µM (inactive) | 10.7 µM (inactive) |
| C=C(Cl)C(Cl)(CBr)CCC(Br)C(C)(C)Cl (stereo not given) | 2.92 µM (inactive) and 1.6 µM (inactive) and 10.7 µM (inactive) | 16 µM (inactive) and 13.8 µM (inactive) and 14.3 µM (inactive) | 1.34 µM (inactive) and 2.32 µM (inactive) and 1.43 µM (inactive) | 6.25 µM (inactive) and 2.03 µM (inactive) and 1.26 µM (inactive) | 1.79 µM (inactive) and 1.65 µM (inactive) and 1.35 µM (inactive) | 4.36 µM (inactive) and 2.48 µM (inactive) and 3.09 µM (inactive) | 1.91 µM (inactive) and 12.2 µM (inactive) and 1.52 µM (inactive) | 1.79 µM (inactive) and 7.05 µM (inactive) and 3.31 µM (inactive) | 2.07 µM and 13.3 µM and 3.18 µM | 11.5 µM (inactive) and 4.53 µM (inactive) and 15 µM (inactive) | 1.33 µM (inactive) and 14.4 µM (inactive) and 863 nM (active) | 1.72 µM (inactive) and 2.95 µM (inactive) and 14.5 µM (inactive) | 2.78 µM (inactive) and 1.66 µM (inactive) and 2.1 µM (inactive) | 11.9 µM (inactive) and 21.5 µM (inactive) and 8.41 µM (inactive) | 14.7 µM (inactive) and 4.2 µM (inactive) and 6.62 µM (inactive) | 12 µM (inactive) and 2.44 µM (inactive) and 1.83 µM (inactive) | 3.03 µM (inactive) and 735 nM (active) and 1.35 µM (inactive) | 703 nM (active) and 785 nM (active) and 1.43 µM (inactive) | 2.18 µM (inactive) and 11.1 µM (inactive) and 1.77 µM (inactive) | 914 nM (active) and 1.11 µM (active) and 665 nM (active) |
| Clc1cc(OCC23CC4CC(CC(C4)C2)C3)nc(OCC23CC4CC(CC(C4)C2)C3)n1 | > 100 µM (inactive) | > 100 µM (inactive) | > 100 µM (inactive) | > 100 µM (inactive) | 41.7 µM (inactive) | > 100 µM (inactive) | > 100 µM (inactive) | > 100 µM (inactive) | > 100 µM | > 100 µM (inactive) | > 100 µM (inactive) | > 100 µM (inactive) | > 100 µM (inactive) | > 100 µM (inactive) | > 100 µM (inactive) | > 100 µM (inactive) | > 100 µM (inactive) | > 100 µM (inactive) | > 100 µM (inactive) | > 100 µM (inactive) |
| COC(=O)C1=C(C(=O)OC)N(c2ccncc2)C(c2ccco2)=CC1c1ccccc1[N+](=O)[O-] (stereo not given) | 5.97 µM (inactive) | 2.03 µM (inactive) | 1.6 µM (inactive) | 8.04 µM (inactive) | 6.19 µM (inactive) | 10.3 µM (inactive) | 6.9 µM (inactive) | 6.59 µM (inactive) | 1.89 µM | 0.75 µM (active) | 1.44 µM (inactive) | 4.75 µM (inactive) | 2.02 µM (inactive) | 1.95 µM (inactive) | 4.71 µM (inactive) | 12.1 µM (inactive) | 4.72 µM (inactive) | 15.5 µM (inactive) | 6.15 µM (inactive) | 5.94 µM (inactive) |
| COc1ccc(-c2oc3cc(OC)c(OC)c(O)c3c(=O)c2OC)cc1 | 89.9 µM (inactive) | 33.7 µM (inactive) | > 100 µM (inactive) | 43.2 µM (inactive) | 20.8 µM (inactive) | > 100 µM (inactive) | > 100 µM (inactive) | 41.6 µM (inactive) | 40.5 µM | > 100 µM (inactive) | > 100 µM (inactive) | > 100 µM (inactive) | > 100 µM (inactive) | 18.7 µM (inactive) | 80.4 µM (inactive) | 80.5 µM (inactive) | 24.5 µM (inactive) | 30.3 µM (inactive) | > 100 µM (inactive) | 24 µM (inactive) |
| Cc1cc(C(O)CNC(C)CCn2cnc3c2c(=O)n(C)c(=O)n3C)ccc1O (stereo not given) | > 100 µM (inactive) | > 100 µM (inactive) | > 100 µM (inactive) | > 100 µM (inactive) | > 100 µM (inactive) | > 100 µM (inactive) | > 100 µM (inactive) | > 100 µM (inactive) | > 100 µM | > 100 µM (inactive) | > 100 µM (inactive) | > 100 µM (inactive) | > 100 µM (inactive) | > 100 µM (inactive) | > 100 µM (inactive) | > 100 µM (inactive) | > 100 µM (inactive) | > 100 µM (inactive) | > 100 µM (inactive) | > 100 µM (inactive) |
| COC(=O)c1ccc(C)cc1C1CN=NC12Cc1cccc(C)c1C2=O (stereo not given) | 26.5 µM (inactive) | 28.1 µM (inactive) | 26.7 µM (inactive) | 21.1 µM (inactive) | 50 µM (inactive) | 41.1 µM (inactive) | 57.7 µM (inactive) | 27.6 µM (inactive) | 47.2 µM | 82.8 µM (inactive) | 26.7 µM (inactive) | 30.5 µM (inactive) | 29.7 µM (inactive) | 53.1 µM (inactive) | 52.7 µM (inactive) | 25.4 µM (inactive) | 57.1 µM (inactive) | 71.3 µM (inactive) | 18.9 µM (inactive) | 38.3 µM (inactive) |
